Assay results published in PMC9736855, “Discovery of 3-Amino-1H-pyrazole-Based Kinase Inhibitors to Illuminate the Understudied PCTAIRE Family” (International Journal of Molecular Sciences, 2022).
Blank lines part the entries; values can stand above or below the molecule they belong to.

Tests used:
CDK2 [1] = molecular target: T1, CDK2 (Homo sapiens, UniProt P24941); settings: cited from earlier work
T1 construct: purchased in-house DSF panel (SGC Frankfurt)

CDK5 = settings: cited from earlier work
CDK16 = molecular target: T2, CDK16 (Homo sapiens, UniProt Q00536); test: DSF; type: binding; settings: 10 μM compound
T2 construct: purchased in-house DSF panel (SGC Frankfurt)
T2 sequence (Q00536 163-478): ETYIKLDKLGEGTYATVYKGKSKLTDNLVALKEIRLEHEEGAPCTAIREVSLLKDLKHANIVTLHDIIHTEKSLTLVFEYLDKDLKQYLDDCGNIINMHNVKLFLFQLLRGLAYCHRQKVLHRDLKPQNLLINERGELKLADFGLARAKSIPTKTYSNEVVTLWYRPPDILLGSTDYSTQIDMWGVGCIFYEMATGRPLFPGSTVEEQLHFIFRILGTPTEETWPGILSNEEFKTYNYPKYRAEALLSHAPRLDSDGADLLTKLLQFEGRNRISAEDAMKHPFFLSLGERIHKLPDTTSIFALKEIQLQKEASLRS
Source text: (§1) To investigate the selectivity profile of the different series, a differential scanning fluorimetry (DSF) assay was used. This assay offers a rapid and sensitive screening method that determines the denaturation temperature of a protein in absence and presence of a compound. This assay format measures the fluorescence of a dye, which depends on the folding state of the protein. The difference between the melting temperature (ΔTm) in the absence and presence of the compound represents the binding strength to the protein.
(§2) Measurements were performed in duplicates.

CDK2 [2] = molecular target: T1, CDK2; test: DSF; type: binding; settings: 10 μM compound
Source text: as §1, §2

CDK16/Cyclin Y = molecular target: T3, CDK16/Cyclin Y (Homo sapiens, UniProt Q00536); test: NanoBRET; type: cell-based; settings: Figure 7, 11-point dose-response in duplicates; read-out: NanoBRET EC50 ± SEM against CDK16
T3 construct: Full-length kinases were obtained as plasmids cloned in frame with a terminal NanoLuc-fusion; CS1810C178 (CCNY); host or cells: HEK293T
T3 sequence (Q00536 whole entry, the tested form may be a part): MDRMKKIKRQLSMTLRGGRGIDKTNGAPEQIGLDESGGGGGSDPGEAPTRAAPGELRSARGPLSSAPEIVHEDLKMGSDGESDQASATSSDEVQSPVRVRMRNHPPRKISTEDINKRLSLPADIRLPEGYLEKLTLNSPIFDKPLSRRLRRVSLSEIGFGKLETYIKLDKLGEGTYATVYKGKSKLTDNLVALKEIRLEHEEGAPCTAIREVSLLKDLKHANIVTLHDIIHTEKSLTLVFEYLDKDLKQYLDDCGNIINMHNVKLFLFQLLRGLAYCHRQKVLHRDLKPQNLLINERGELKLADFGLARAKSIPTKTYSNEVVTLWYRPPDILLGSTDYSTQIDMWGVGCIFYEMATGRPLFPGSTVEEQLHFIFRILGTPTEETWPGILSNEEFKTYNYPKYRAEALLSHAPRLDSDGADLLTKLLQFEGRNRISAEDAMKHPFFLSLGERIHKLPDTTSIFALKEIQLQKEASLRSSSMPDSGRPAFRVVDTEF
T3 sequence (Q8ND76 2-341 partner limits assumed): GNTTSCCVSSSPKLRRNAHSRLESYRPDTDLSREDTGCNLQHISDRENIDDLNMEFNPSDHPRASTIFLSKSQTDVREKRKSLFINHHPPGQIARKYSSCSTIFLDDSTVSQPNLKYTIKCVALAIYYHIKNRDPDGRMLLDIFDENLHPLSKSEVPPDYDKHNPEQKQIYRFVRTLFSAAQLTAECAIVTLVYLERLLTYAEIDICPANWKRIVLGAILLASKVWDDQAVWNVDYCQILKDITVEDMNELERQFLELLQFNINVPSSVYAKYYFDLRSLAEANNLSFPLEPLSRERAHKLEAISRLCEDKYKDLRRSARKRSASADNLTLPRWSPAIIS
Description: Next, to specifically quantify the outcome of the cellular activity of the compounds, a NanoBRET cellular target engagement assay was performed. The determination of the cellular potency on CDK16 correlated well with the corresponding DSF assay data (Figure S2). […] As mentioned before, the exchange from a methyl ester to an iso-propyl or tert-butyl ester led to a higher stabilization of the kinase in the DSF assay, which correlated with an increase in cellular potency as determined in the NanoBRET assay. […] The number of potential off-targets was low with 1 and 2 kinases with ΔTm >5 °C (Figure 4), highlighting these inhibitors for more comprehensive selectivity studied within the CDK and particular the TAIRE subfamily.
(§3) The assay was performed as described previously. In brief: Full-length kinases were obtained as plasmids cloned in frame with a terminal NanoLuc-fusion (Promega, Madison, WI, USA), as specified in table (Table S6). Plasmids were transfected into HEK293T cells using FuGENE HD (Promega, E2312) and proteins were allowed to express for 20h. Serially diluted inhibitor and NanoBRET Kinase Tracer (Promega) at a concentration determined previously as the KD,app (Table S5) were pipetted into white 384-well plates (Greiner 781207) using an Echo acoustic dispenser (Labcyte, San Jose, CA, USA). The corresponding protein-transfected cells were added and reseeded at a density of 2.5 × 10^5 cells/mL after trypsinization and resuspending in Opti-MEM without phenol red (Life Technologies, Carlsbad, CA, USA). The system was allowed to equilibrate for 2 h at 37 °C/5% CO2 prior to BRET measurements. To measure BRET, NanoBRET NanoGlo Substrate + Extracellular NanoLuc Inhibitor (Promega, N2540) was added as per the manufacturer’s protocol, and filtered luminescence was measured on a PHERAstar plate reader (BMG Labtech, Ortenberg, Germany) equipped with a luminescence filter pair (450 nm BP filter (donor) and 610 nm LP filter (acceptor)). Competitive displacement data were then graphed using GraphPad Prism 9 software using a normalized 3-parameter curve fit with the following equation: Y = 100/(1 + 10^(X–LogEC50)).

CDK16 and GSK3 = test: proteome-wide CETSA MS; type: cell-based; settings: K562 cells, 30 µM, 60 min
Description: To verify whether the substances also lead to stabilization of proteins in the cellular system, proteome-wide CETSA experiments were performed. Therefore, lead structure 1 and some compounds from the second series (21b, 21d, 21e, 21h, and 21i) were selected for this study (Figure 6, Figure S1). While the statistical significance is plotted on the Y-axis, the relative protein amount is shown on the X-axis. […] Based on excellent proteome-wide selectivity identifying CDK16 and GSK3 as the most prominently stabilized kinases, 21d and 21i were selected for further investigations. […] We therefore decided to proceed with a CDK16-specific cellular assay.
Compressed CETSA MS assays, also known as PISA (Proteome Integral Stability Alteration assay), were performed as previously described by Chernobrovkin et. al., with some minor changes. K562 cells were obtained from ATCC. K562 cells were mixed with an equal volume of compound solution, final concentartion of 30 µM, in a buffer (20 mM HEPES, 138 mM NaCl, 5 mM KCl, 2 mM CaCl2, 1 mM MgCl2, pH 7.4). One percent and DMSO was used as a control. Cells were incubated at +37 °C for 60 min. The cell suspension was split into 12 aliquots which were heated at a different temperature between 44 and 66 °C for 3 min. After the heating, the cells were lysed through freeze–thawing them 3 times and the lysed aliquots were pooled together. Cell debris and aggregates were removed through centrifugation (20 min at 30.000× g).

GSK3B [3] = molecular target: T4, GSK3B (Homo sapiens, UniProt P49841); test: DSF; type: binding; set-up: purchased in-house DSF panel (SGC Frankfurt); settings: 10 μM compound
Source text: as §1, §2
Target sequence in this assay (P49841 35-386): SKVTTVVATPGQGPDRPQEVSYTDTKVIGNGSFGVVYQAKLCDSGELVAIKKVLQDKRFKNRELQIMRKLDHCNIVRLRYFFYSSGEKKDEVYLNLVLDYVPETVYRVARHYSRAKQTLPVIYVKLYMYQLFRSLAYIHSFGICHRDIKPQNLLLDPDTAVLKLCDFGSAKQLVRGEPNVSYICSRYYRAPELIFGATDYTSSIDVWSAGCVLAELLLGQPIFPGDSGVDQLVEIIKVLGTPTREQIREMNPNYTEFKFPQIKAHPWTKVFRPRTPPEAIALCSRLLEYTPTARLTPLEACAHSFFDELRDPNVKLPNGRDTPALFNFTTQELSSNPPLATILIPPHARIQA

[4] = test system: in-house panel of 89–105 kinases; test: DSF selectivity screen; type: binding; settings: number of kinases of the DSF panel
Source text: To investigate the selectivity profile of the different series, a differential scanning fluorimetry (DSF) assay was used. This assay offers a rapid and sensitive screening method that determines the denaturation temperature of a protein in absence and presence of a compound. This assay format measures the fluorescence of a dye, which depends on the folding state of the protein. The difference between the melting temperature (ΔTm) in the absence and presence of the compound represents the binding strength to the protein. We used an in-house panel of 89–105 kinases to screen all synthesized inhibitors (Tables S1–S3).
as §2

GSK3B [5] = molecular target: T4, GSK3B; test: NanoBRET; type: cell-based; set-up: Full-length kinases were obtained as plasmids cloned in frame with a terminal NanoLuc-fusion; host or cells: HEK293T
Description: as §3, with “Competitive displacement data were then graphed using GraphPad Prism 9 software using a normalized 3-parameter curve fit with the following equation: Y = 100/(1 + 10^(X–LogEC50)).” left out
Target sequence in this assay (P49841 whole entry): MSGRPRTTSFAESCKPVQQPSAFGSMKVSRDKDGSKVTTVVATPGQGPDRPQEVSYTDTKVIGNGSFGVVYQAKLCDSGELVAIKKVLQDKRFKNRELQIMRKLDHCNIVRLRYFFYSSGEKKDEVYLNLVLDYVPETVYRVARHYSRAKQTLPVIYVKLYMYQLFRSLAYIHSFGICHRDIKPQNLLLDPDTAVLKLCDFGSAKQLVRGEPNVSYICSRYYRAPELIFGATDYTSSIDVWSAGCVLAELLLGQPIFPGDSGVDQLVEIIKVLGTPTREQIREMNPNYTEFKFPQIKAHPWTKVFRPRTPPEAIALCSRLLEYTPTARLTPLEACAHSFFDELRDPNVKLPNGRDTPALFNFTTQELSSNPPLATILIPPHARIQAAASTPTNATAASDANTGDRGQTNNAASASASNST

359 wild-type kinases = test system: 359 wild-type kinases; set-up: method as in PMID 19053485; settings: kinome-wide screen; cited from earlier work

Structure (SMILES): Cc1cc(Nc2cc(N3CCN(C)CC3)nc(Sc3ccc(NC(=O)C4CC4)cc3)n2)[nH]n1 [tozasertib]
affinity for CDK2 (CDK2 [1]): no affinity
affinity for CDK5 (CDK5): no affinity

Structure (SMILES): COC(=O)c1cc(Nc2ccnc(NCCCCCCNC(=O)OC(C)(C)C)n2)[nH]n1 [21e, methyl 5-((2-((6-((tert-butoxycarbonyl)amino)hexyl)amino)pyrimidin-4-yl)amino)-1H-pyrazole-3-carboxylate]
ΔTm at 10 µM (CDK16): 8.5 °C
ΔTm at 10 µM (CDK2 [2]): 6.5 ± 0.1 °C
EC50 (CDK16/Cyclin Y): 0.152 µM
stabilization in CETSA MS (CDK16 and GSK3): stabilization of CDK16 and GSK3
ΔTm at 10 µM (GSK3B [3]): 8.6 ± 0.1 °C

Structure (SMILES): COC(=O)c1cc(Nc2ccnc(Nc3cccc(CCNC(=O)OC(C)(C)C)c3)n2)[nH]n1 [21b, methyl 5-((2-((3-(2-((tert-butoxycarbonyl)amino)ethyl)phenyl)amino)pyrimidin-4-yl)amino)-1H-pyrazole-3-carboxylate]
ΔTm at 10 µM (CDK16): 4.9 °C
ΔTm at 10 µM (CDK2 [2]): 4.6 ± 0.1 °C
EC50 (CDK16/Cyclin Y): 0.688 ± 0.0225 µM
stabilization in CETSA MS (CDK16 and GSK3): stabilization of CDK16 and GSK3
ΔTm at 10 µM (GSK3B [3]): 8.6 ± 0.2 °C

Structure (SMILES): CC(C)(C)OC(=O)NCCCCCNc1nccc(Nc2cc(C(=O)OC(C)(C)C)[nH]n2)n1 [43b, tert-butyl 3-((2-((5-((tert-butoxycarbonyl)amino)pentyl)amino)pyrimidin-4-yl)amino)-1H-pyrazole-5-carboxylate]
ΔTm at 10 µM (CDK16): 9.3 ± 0.1 °C
ΔTm at 10 µM (CDK2 [2]): 6.5 ± 0.1 °C
Kinases with shifts > 5°C [4]: 7–10
EC50 (CDK16/Cyclin Y): 0.076 ± 0.0009 µM
ΔTm at 10 µM (GSK3B [3]): 6.6 ± 0.1 °C

Structure (SMILES): COC(=O)c1cc(Nc2ccnc(Nc3ccc(CNC(=O)OC(C)(C)C)cc3)n2)[nH]n1 [21h, methyl 5-((2-((4-(((tert-butoxycarbonyl)amino)methyl)phenyl)amino)pyrimidin-4-yl)amino)-1H-pyrazole-3-carboxylate]
ΔTm at 10 µM (CDK16): 5.1 ± 0.1 °C
ΔTm at 10 µM (CDK2 [2]): 2.5 ± 0.2 °C
Kinases with shifts > 5°C [4]: 4–9
EC50 (CDK16/Cyclin Y): 0.391 µM
stabilization in CETSA MS (CDK16 and GSK3): stabilization of CDK16 and GSK3
ΔTm at 10 µM (GSK3B [3]): 6 ± 0.3 °C

ΔTm at 10 µM (CDK16): 2.4 ± 0.1 °C
ΔTm at 10 µM (CDK2 [2]): 3 °C
EC50 (CDK16/Cyclin Y): 2.83 ± 0.544 µM
ΔTm at 10 µM (GSK3B [3]): 9.5 °C
EC50 (GSK3B [5]): 18 µM
Structure (SMILES): COC(=O)c1cc(Nc2ccnc(Nc3ccc(CCN)cc3)n2)n[nH]1 [compound 24, methyl 3-((2-((4-(2-aminoethyl)phenyl)amino)pyrimidin-4-yl)amino)-1H-pyrazole-5-carboxylate]

Structure (SMILES): N#CCc1ccc(Nc2nc(Nc3cc(C4CC4)[nH]n3)c3ccccc3n2)cc1 [compound 3]
number of kinases targeted of 359 wild-type kinases (359 wild-type kinases): 317
